Results taken from paper PMC9953095, “Design, Synthesis and Biological Evaluation of Quinazolinamine Derivatives as Breast Cancer Resistance Protein and P-Glycoprotein Inhibitors with Improved Metabolic Stability” (Biomolecules, 2023).
Where “and” joins values, the source holds several entries; their conditions need not be identical. Equal entries are not always repeated.

Tests used:
[1] = Metabolic stability with human liver microsomes; assay type: in vitro ADME; settings: after 1 h of incubation with human liver microsomes, 37 °C, NADPH; also: tested at 200 µM
Experimental: Human liver microsome (20 mg/mL) 6.25 µL, nicotinamide adenine dinucleotide phosphate (NADPH) (0.75 µmol), MgCl2 (0.75 µmol), and the test compound (0.05 µmol) were added into a potassium phosphate buffer (pH 7.4) with 250 µL of final volume. The incubation was carried out aerobically at 37 °C. The mixture was pre-incubated without NADPH for 10 min at 37 °C and NADPH was added to start the reaction. At 1 h after the start of the reaction, an aliquot (50 µL) of the incubation mixture was taken from each incubation and mixed with 150 µL of ice-cold acetonitrile to terminate the reaction. Subsequently, the sample was centrifuged (12,000 rpm) at room temperature. The resulting supernatant was filtered and analyzed using HPLC (LC, Agilent 1200; column, HC-C18(2); column temperature, 25 °C; mobile phase, solvent A, methanol, solvent B, water; gradient elution, 30–99% solvent A; flow rate, 1 mL/min; UV signals were recorded at 254 nm).

[2] = tested on: BCRP-overexpressing H460/MX20 cells; experiment: [3H]-mitoxantrone accumulation assay, H460/MX20; assay type: cell-based, human; settings: resistant H460/MX20 cells; compound 5 μM; Figure 6A
Experimental: (§1) To determine the accumulation of drugs on H460, H460/MX20, KB-3-1, and KB-C2 cells, the cells ([…] cells/well) were seeded in the 24-well plates and incubated at 37 °C with 5% CO2 [17]. After 12 h of incubation, a test compound (5 µM) was added and the plates were incubated at 37 °C for 2 h. Cells were then incubated with 0.01 µM [^3H]-MX or [^3H]-paclitaxel-containing medium for an additional 2 h at 37 °C, with or without a test compound. The cells were washed twice with ice-cold phosphate-buffered saline (PBS), trypsinized and lysed at the end of incubation. The radioactivity was measured using the Packard TRICARB1 1900A liquid scintillation analyzer.

KB-C2 cells = experiment: [3H]-paclitaxel accumulation assay, KB-C2; assay type: cell-based, human; settings: resistant cell line KB-C2; compound 5 μM; Figure 6B
Experimental: as §1

[3] = tested on: P-gp protein in KB-C2 cells; experiment: Western blot of P-gp expression in KB-C2 cells; assay type: cell-based, human
Experimental: Cells in T25 flask were washed with ice-cold PBS. Lysis buffer (100 µL) was added into T25 flask. Using a cell scraper, scrape adherent cells were scraped off the flask and the cell suspension was transferred into a microcentrifuge tube (1.5 mL). Cells were agitated for 20 min at 4 °C and cell lysate was centrifuged mixture at 4 °C for 20 min at 12,000 rpm. The supernatant (lysate) was used for the gel electrophoresis. Equal amounts of total cell lysates (20 µg protein) were resolved by sodium dodecyl sulfate polyacrylamide gel electrophoresis (SDS-PAGE) and electrophoretically transferred onto polyvinylidene fluoride (PVDF) membranes. After incubation in a blocking solution (5% milk) for 2 h at room temperature, the membranes were incubated overnight with primary monoclonal antibodies against GAPDH (GA1R) (Invitrogen, Carlsbad, CA, USA) at 1:1000 dilution of BCRP protein (BXP 21) (Sigma-Aldrich, Inc., St. Louis, MO, USA) (1:1000) or P-gp (F4) (Sigma-Aldrich, Inc., St. Louis, MO, USA) at 4 °C, and were further incubated with horseradish […] (HRP)-conjugated secondary antibody (Thermo Fisher Scientific Inc., Waltham, MA, USA) at 1:1000 dilution for 2 h at room temperature. The protein antibody complex was detected using an enhanced chemiluminescence detection system. The grayscale ratio was analyzed by ImageJ and normalized by the grayscale of the ABC protein divided by that of GAPDH.

BCRP ATPase = target: T1, BCRP ATPase (Homo sapiens, UniProt Q9UNQ0); experiment: Vanadate-sensitive BCRP ATPase assay; assay type: biochemical; settings: membrane vesicles of High Five insect cells; Figure 10A,B
T1 construct: host or cells: High Five insect cells (membrane vesicles)
T1 sequence (Q9UNQ0 1-655): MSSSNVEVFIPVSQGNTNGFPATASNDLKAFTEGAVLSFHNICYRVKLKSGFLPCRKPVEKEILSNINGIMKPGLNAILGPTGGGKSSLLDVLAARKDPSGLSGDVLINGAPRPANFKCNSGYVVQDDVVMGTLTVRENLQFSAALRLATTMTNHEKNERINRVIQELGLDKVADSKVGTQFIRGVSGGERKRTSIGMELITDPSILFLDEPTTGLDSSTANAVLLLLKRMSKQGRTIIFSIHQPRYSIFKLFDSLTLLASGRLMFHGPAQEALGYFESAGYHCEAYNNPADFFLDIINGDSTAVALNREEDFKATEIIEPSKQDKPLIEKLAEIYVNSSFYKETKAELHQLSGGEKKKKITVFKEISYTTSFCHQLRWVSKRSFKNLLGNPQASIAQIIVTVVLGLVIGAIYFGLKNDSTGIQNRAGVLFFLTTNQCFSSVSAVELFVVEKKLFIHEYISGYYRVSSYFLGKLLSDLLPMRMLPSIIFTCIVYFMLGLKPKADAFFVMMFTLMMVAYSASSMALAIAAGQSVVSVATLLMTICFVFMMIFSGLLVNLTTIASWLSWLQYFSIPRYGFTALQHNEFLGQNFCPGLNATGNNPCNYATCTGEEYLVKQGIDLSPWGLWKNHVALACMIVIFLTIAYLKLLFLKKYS
Experimental: (§2) The vanadate (Vi)-sensitive ATPase activity of BCRP and P-gp in the membrane vesicles of High Five insect cells was measured as described previously. The results were presented as vanadate-sensitive ATPase activities by determining the difference in inorganic phosphate liberation measured in the presence and absence of sodium orthovanadate.

P-gp ATPase = target: T2, P-gp ATPase (Homo sapiens, UniProt P08183); experiment: Vanadate-sensitive P-gp ATPase assay; assay type: biochemical; settings: membrane vesicles of High Five insect cells; Figure 10C
T2 construct: host or cells: High Five insect cells (membrane vesicles)
T2 sequence (P08183 whole entry): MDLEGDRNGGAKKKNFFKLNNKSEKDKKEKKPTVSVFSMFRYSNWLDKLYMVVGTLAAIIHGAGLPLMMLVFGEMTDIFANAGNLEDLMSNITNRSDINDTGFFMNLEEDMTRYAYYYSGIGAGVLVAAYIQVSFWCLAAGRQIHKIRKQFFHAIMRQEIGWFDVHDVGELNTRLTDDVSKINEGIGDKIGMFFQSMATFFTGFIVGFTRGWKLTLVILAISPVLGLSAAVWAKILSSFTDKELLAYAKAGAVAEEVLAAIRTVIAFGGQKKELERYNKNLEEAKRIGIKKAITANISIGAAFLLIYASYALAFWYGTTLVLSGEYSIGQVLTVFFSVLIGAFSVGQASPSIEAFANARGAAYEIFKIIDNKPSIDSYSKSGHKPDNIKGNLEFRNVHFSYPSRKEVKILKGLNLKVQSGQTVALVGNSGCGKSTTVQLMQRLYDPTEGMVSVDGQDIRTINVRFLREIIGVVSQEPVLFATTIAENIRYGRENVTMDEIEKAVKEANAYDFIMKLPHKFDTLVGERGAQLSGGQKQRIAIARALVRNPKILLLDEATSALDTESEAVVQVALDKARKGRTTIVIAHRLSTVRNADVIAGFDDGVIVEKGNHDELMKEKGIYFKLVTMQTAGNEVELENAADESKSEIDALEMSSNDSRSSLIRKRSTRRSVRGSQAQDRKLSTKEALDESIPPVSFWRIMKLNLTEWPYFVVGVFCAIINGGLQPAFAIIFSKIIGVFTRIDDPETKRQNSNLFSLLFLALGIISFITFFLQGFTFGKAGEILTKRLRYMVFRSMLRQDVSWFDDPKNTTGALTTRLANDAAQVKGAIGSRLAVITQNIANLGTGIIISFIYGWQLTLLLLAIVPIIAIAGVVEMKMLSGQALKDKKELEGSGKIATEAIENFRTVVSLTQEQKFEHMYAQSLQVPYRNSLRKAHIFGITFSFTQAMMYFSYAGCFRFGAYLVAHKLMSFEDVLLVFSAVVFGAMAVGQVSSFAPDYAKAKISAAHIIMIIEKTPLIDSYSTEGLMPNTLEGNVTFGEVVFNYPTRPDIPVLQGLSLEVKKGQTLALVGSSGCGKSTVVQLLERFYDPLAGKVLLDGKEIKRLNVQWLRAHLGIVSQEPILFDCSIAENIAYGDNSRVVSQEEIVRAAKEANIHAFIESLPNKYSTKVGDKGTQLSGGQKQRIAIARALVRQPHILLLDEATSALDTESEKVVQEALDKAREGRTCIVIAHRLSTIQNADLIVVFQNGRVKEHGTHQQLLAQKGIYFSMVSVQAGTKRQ
Experimental: as §2

[4] = tested on: P-gp-mediated multidrug-resistant cell line KB-C2; experiment: MTT reversal assay with paclitaxel, KB-C2 cells; assay type: cell-based, human; settings: Figure 5A
Experimental: The human lung cancer cell line H460, and its MX-selected derivative BCRP-overexpressing cell line, H460/MX20, were used in this study. The KB-C2 cell line was selected by colchicine (Alfa Aesar, Haverhill, MA, USA) (2 μg/mL) with human cervical carcinoma cell line KB-3-1.
Cytotoxicity tests and reversal experiments were performed using the 3-(4,5-dimethylthiazol-2-yl)-2,5-diphenyltetrazolium bromide (MTT) colorimetric assay. Cells were seeded evenly into 96-well plates. […] To determine the MDR reversal efficacy of the quinazolinamine derivatives, an anticancer drug (mitoxantrone, colchicine, paclitaxel or cisplatin) was added into the designated wells after 2 h pre-incubation with a quinazolinamine derivative or a positive control inhibitor at non-toxic concentrations. After 72 h of drug incubation, the MTT reagent (4 mg/mL) was added into the wells, and then the plates were incubated for an additional 4 h. Subsequently, the supernatant was discarded and 100 µL of dimethyl sulfoxide (DMSO) was added to dissolve the formazan crystals. Cell viability was determined by measuring the absorbance by using an accuSkan™ GO UV/Vis Microplate Spectrophotometer (Fisher Sci., Fair Lawn, NJ, USA) at a wavelength of 570 nm.

Question: With c1ccc2c(Nc3ccc(C4CC4)cc3)nc(-c3ccncc3)nc2c1 [Compound 22, N-(4-Cyclopropylphenyl)-2-(pyridin-4-yl)quinazolin-4-amine] as the compound, how does the “Metabolic Stability, % compound remaining” value [1] read?
Answer: Its value is 92% and 92 ± 8%.

Question: What about the accumulation of mitoxantrone [2] of the same compound?
Answer: The accumulation of mitoxantrone was “increased the accumulation”.

Question: What about the accumulation of paclitaxel (KB-C2 cells) of the same compound?
Answer: The accumulation of paclitaxel was “significantly increased”.

Question: And the “cytoplasmic P-gp expression level” value ([3]; KB-C2 cytoplasm fraction, Figure 9D)?
Answer: Its value is “slightly increased”.

Question: What about the “expression level of the P-gp protein on the membrane” value ([3]; KB-C2 membrane fraction, Figure 9C) of the same compound?
Answer: The value was “slightly decreased”.

Question: And the P-gp protein expression ([3]; KB-C2 total cell lysate, Figure 7B)?
Answer: The P-gp protein expression was “nor did it change the P-gp protein expression”.

Question: What about the “effect on Vi-sensitive BCRP ATPase activity (ATP hydrolysis)” value (BCRP ATPase) of the same compound?
Answer: Its value is “significantly stimulated”.

Question: And the “effect on Vi-sensitive P-gp ATPase activity” value (P-gp ATPase)?
Answer: The value was “neither stimulate or inhibit”.

Question: What about the sensitization to paclitaxel [4] of the same compound?
Answer: Its sensitization to paclitaxel is “could sensitize KB-C2 cells”.
